Structures are written as SMILES. In brackets after ≈: the same amount, converted by molar mass.

The results in this text go back to article PMC4177392, “Modulation of Cytochrome P450 Metabolism and Transport across Intestinal Epithelial Barrier by Ginger Biophenolics” (PLoS ONE, 2014).

Series [1] deals with CYP3A4 (Homo sapiens, UniProt P08684). Nature of the series: CYP3A4 inhibition in human liver microsomes (substrate midazolam). The series is classed as in vitro ADME. To be noted: for IC50 CYP3A4 (midazolam): human liver microsomes, substrate midazolam, gingerols and GE.
Protocol: (§1) The highest concentration of GE used in the assay was 500 µg/mL equivalent. Stock solution for each CYP specific probe substrate was prepared in such a way that the final concentration is below the reported Km value.
A microsome-buffer-substrate mixture (MBS mix) was prepared for each isozyme by pre-mixing appropriate volumes of sodium phosphate buffer (pH 7.4, 50 mM), microsomes and substrate (Table S2 in File S1). 179 µL of MBS mix was transferred to 96-well reaction plate to which 1 µL of inhibitor stock solution was added to achieve the final target inhibitor concentration. The reaction plate was pre-incubated for 10 min at 37°C followed by reaction initiation by addition of 20 µL of 10 mM NADPH solution. The reaction plate was then incubated at 37°C for a predetermined time period following which it was quenched with 200 µL ACN for all CYPs and 200 µL 1% formic acid in water∶ACN (70∶30) for CYP1A2. In all cases, the final incubations after addition of substrate and inhibitor contained 0.1% DMSO (v/v), and the total organic solvent (DMSO and ACN) content was less than or equal to 1% (v/v). The details of final substrate concentration, incubation time, microsomal protein concentration in the reaction mixtures and the metabolites monitored for each isozyme tested are presented in Table S3 in File S1. The incubations were performed in singlet for individual gingerols and in duplicate for GE along with respective positive controls.
All samples were processed using protein precipitation method and analyzed by employing positive (for all CYPs) and negative (for CYP2A6, 2C19 and 2E1) ionization mode in liquid chromatography tandem mass spectrometry (API4000, Applied Biosystems, USA). The peak area ratio of analyte to IS was used for calculations. An isocratic method comprising 5 mM ammonium formate and ACN (40∶60) with 0.05% formic acid was used for elution. For CYP2C19, a mobile phase consisting of 5 mM ammonium formate and ACN (30∶70) was used. The analytes and internal standards were retained on BDS Hypersil Phenyl (150×4.6 mm, 5 µ, Thermo, USA) column. A flow rate of 0.5 mL/min (CYP1A2), 0.6 mL/min (CYP2C19, CYP2E1), 0.7 mL/min (CYP2C9), 0.8 mL/min (CYP2A6, CYP3A), 1.0 mL/min (CYP2B6, CYP2C8, CYP2D6) was maintained using Shimadzu Prominence solvent delivery system (LC-20AD). The mobile phase was degassed using degasser (DGU-20A3), samples were loaded into autosampler (SIL-HTc) and the column temperature was maintained at 40°C by column oven (CTO-20A). […]
For series [2], the system named is Caco-2 monolayer. Nature of the series: Caco-2 permeability assay. The conditions noted are these: 10 µM; for Intracellular (cell) accumulation: direction not given; for Papp: n = 3, mean ± SD.
Series [3] concerns the target T1, CYP2C8 (Homo sapiens, UniProt P10632).
T1 sequence (P10632 1-490): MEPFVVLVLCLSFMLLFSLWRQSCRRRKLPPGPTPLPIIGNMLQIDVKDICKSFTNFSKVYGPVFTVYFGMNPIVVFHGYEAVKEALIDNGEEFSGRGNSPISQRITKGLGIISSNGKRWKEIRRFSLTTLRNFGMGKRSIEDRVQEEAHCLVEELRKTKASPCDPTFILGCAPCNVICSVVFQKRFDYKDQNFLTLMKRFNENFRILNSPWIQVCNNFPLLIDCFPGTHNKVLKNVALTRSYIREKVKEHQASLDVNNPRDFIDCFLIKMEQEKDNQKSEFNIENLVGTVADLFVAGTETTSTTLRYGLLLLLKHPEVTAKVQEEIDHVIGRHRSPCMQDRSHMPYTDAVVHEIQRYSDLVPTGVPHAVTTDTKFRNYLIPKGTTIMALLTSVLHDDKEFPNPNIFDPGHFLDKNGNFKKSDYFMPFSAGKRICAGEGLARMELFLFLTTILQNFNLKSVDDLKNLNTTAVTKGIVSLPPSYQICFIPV
Nature of the series: CYP2C8 inhibition in human liver microsomes (substrate amodiaquine). The series is classed as in vitro ADME.
Protocol: as §1
(§2) A microsome-buffer-substrate mixture (MBS mix) was prepared for each isozyme by pre-mixing appropriate volumes of sodium phosphate buffer (pH 7.4, 50 mM), microsomes and substrate (Table S2 in File S1). 179 µL of MBS mix was transferred to 96-well reaction plate to which 1 µL of inhibitor stock solution was added to achieve the final target inhibitor concentration. The reaction plate was pre-incubated for 10 min at 37°C followed by reaction initiation by addition of 20 µL of 10 mM NADPH solution. The reaction plate was then incubated at 37°C for a predetermined time period following which it was quenched with 200 µL ACN for all CYPs and 200 µL 1% formic acid in water∶ACN (70∶30) for CYP1A2. In all cases, the final incubations after addition of substrate and inhibitor contained 0.1% DMSO (v/v), and the total organic solvent (DMSO and ACN) content was less than or equal to 1% (v/v). […] The incubations were performed in singlet for individual gingerols and in duplicate for GE along with respective positive controls.

Series [4] has as its target T2, CYP1A2 (Homo sapiens, UniProt P05177).
T2 construct: […]; tissue XenoTechLLC H0610
T2 sequence (P05177 1-516): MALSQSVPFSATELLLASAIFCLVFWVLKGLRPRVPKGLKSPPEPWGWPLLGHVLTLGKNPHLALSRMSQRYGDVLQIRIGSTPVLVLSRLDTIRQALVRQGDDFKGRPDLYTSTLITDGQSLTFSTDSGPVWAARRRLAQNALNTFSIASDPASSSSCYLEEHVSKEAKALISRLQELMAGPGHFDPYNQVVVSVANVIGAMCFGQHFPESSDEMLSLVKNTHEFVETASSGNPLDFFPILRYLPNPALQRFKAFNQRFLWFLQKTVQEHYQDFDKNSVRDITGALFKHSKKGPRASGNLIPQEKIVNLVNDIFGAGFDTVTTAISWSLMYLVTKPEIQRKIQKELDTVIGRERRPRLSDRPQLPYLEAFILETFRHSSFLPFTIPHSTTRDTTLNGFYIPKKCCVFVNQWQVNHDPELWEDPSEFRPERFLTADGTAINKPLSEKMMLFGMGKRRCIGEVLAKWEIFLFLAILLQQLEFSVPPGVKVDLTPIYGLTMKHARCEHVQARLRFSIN
As to the kind of experiment: CYP1A2 inhibition in human liver microsomes (substrate phenacetin). The series is classed as in vitro ADME.
Protocol: as §1, §2

The target in series [5] is CYP2E1 (Homo sapiens, UniProt P05181). Nature of the series: CYP2E1 inhibition in human liver microsomes (substrate chlorzoxazone). As to the method:
Stock solution for each CYP specific probe substrate was prepared in such a way that the final concentration is below the reported Km value.
A microsome-buffer-substrate mixture (MBS mix) was prepared for each isozyme by pre-mixing appropriate volumes of sodium phosphate buffer (pH 7.4, 50 mM), microsomes and substrate (Table S2 in File S1). 179 µL of MBS mix was transferred to 96-well reaction plate to which 1 µL of inhibitor stock solution was added to achieve the final target inhibitor concentration. The reaction plate was pre-incubated for 10 min at 37°C followed by reaction initiation by addition of 20 µL of 10 mM NADPH solution. The reaction plate was then incubated at 37°C for a predetermined time period following which it was quenched with 200 µL ACN for all CYPs and 200 µL 1% formic acid in water∶ACN (70∶30) for CYP1A2. In all cases, the final incubations after addition of substrate and inhibitor contained 0.1% DMSO (v/v), and the total organic solvent (DMSO and ACN) content was less than or equal to 1% (v/v). The details of final substrate concentration, incubation time, microsomal protein concentration in the reaction mixtures and the metabolites monitored for each isozyme tested are presented in Table S3 in File S1.
All samples were processed using protein precipitation method and analyzed by employing positive (for all CYPs) and negative (for CYP2A6, 2C19 and 2E1) ionization mode in liquid chromatography tandem mass spectrometry (API4000, Applied Biosystems, USA). The peak area ratio of analyte to IS was used for calculations. An isocratic method comprising 5 mM ammonium formate and ACN (40∶60) with 0.05% formic acid was used for elution. For CYP2C19, a mobile phase consisting of 5 mM ammonium formate and ACN (30∶70) was used. The analytes and internal standards were retained on BDS Hypersil Phenyl (150×4.6 mm, 5 µ, Thermo, USA) column. A flow rate of 0.5 mL/min (CYP1A2), 0.6 mL/min (CYP2C19, CYP2E1), 0.7 mL/min (CYP2C9), 0.8 mL/min (CYP2A6, CYP3A), 1.0 mL/min (CYP2B6, CYP2C8, CYP2D6) was maintained using Shimadzu Prominence solvent delivery system (LC-20AD). The mobile phase was degassed using degasser (DGU-20A3), samples were loaded into autosampler (SIL-HTc) and the column temperature was maintained at 40°C by column oven (CTO-20A). Injection volumes for the samples were as follows: 5 µL (CYP1A2, CYP2D6, and CYP3A), 10 µL (CYP2B6, CYP2C8, and CYP2E1) and 20 µL (CYP2A6, CYP2C9, and CYP2C19). Data was collected and processed using Sciex Analyst 1.4.2. All the structures of inhibitors, substrates, metabolites and internal standards for each CYP enzyme are represented in Table S6 in File S1.
The IC50 value was estimated from the percentage reduction in CYP activity at eleven inhibitor concentrations with respect to control.
The data was analysed using 4PL (parameter logistic model), 3PLFB (bottom fixed), 3PLFT (top fixed), 2PL (top and bottom fixed), and the relative IC50 was with lowest standard error was further manipulation. Absolute IC50 was calculated from this relative IC50 by using the equation below: [drawing 3]

Where [6] appears, read: human liver microsomes, substrate amodiaquine, gingerols and GE.
Setting [7] is: human liver microsomes, substrate phenacetin, gingerols and GE.
The mark [8] stands for this setting: human liver microsomes, substrate chlorzoxazone, gingerols and GE.

Chain of CYP2E1 (P05181 whole entry): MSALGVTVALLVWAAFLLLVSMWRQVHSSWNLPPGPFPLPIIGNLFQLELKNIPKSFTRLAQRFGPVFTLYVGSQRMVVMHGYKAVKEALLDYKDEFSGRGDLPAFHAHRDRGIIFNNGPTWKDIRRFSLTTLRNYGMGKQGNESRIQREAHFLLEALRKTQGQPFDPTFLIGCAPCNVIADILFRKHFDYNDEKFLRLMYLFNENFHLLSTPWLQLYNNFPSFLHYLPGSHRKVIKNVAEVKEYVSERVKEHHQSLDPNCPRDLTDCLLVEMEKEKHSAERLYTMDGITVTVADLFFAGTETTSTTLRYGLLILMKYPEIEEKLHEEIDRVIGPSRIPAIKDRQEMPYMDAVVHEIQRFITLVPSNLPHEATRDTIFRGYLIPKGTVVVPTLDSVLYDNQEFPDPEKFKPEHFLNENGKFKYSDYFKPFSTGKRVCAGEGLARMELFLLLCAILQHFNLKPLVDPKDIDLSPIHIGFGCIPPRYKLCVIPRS
Chain of CYP3A4 (P08684 2-503): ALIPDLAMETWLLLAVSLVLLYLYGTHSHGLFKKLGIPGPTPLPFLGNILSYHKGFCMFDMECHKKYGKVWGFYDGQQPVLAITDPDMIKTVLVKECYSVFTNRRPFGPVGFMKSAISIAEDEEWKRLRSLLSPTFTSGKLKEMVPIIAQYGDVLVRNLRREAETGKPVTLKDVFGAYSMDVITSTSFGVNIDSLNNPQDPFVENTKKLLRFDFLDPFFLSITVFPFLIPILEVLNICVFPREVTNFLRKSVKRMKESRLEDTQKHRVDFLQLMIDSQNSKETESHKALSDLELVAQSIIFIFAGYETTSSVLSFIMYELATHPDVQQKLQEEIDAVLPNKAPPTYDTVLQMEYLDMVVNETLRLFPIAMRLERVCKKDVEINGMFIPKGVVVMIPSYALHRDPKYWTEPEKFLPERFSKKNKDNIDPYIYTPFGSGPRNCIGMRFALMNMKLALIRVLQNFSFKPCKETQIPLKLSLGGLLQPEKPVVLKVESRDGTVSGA

Regarding `CCCCC[C@H](O)CC(=O)CCc1ccc(O)c(OC)c1` [6G, 6-gingerol], the IC50 is above 98.5 µM in series [1]; 22.1 µM in series [3] (IC50 CYP2C8, human liver microsomes, substrate amodiaquine, gingerols and GE); 19 µM in series [4]; above 98.5 µM in series [5]. For the same compound, the “Intracellular (cell) accumulation” value in series [2] is listed as below 5%. Further, the Intracellular accumulation in series [2] (A→B) worked out at 2%; in series [2] (B→A), 5%.

`CCCCC/C=C/C(=O)CCc1ccc(O)c(OC)c1` [6S, 6-shogaol]: the “IC50 CYP3A4 (midazolam)” value in series [1] came out at 18 µg/mL (≈ 65.1 µM). The “Intracellular (cell) accumulation” value in series [2] is “almost no accumulation”. Besides, in series [2] (A→B), the Intracellular accumulation is on record as 0% and the Papp turned out to be 0.071 ± 0.014 ×10⁻⁶ cm/s. In addition, in series [2] (B→A), the Intracellular accumulation amounted to 1% and the Papp is 0.4 ± 0.2 ×10⁻⁶ cm/s. Besides, the “IC50 CYP2C8” value in series [3] (setting [6]) is 0.8 µg/mL (≈ 2.89 µM). In series [4] (setting [7]), the “IC50 CYP1A2” value came to 0.7 µg/mL (≈ 2.53 µM). In addition, the “IC50 CYP2E1” value in series [5] (setting [8]) was 21 µg/mL (≈ 76 µM).

On to `CCCCCCC[C@H](O)CC(=O)CCc1ccc(O)c(OC)c1` [8G, 8-gingerol], for which the “IC50 CYP3A4 (midazolam)” value in series [1] was above 32 µg/mL. Also, in series [2], the “Efflux Ratio” value was 1.3 and the “Intracellular (cell) accumulation” value is below 1%. In series [2] (A→B), this compound returned an Intracellular accumulation of 14% and a Papp of 5.3 ± 0.8 ×10⁻⁶ cm/s. In addition, in series [2] (B→A), the Intracellular accumulation is given as 12% and the Papp was found to be 6.9 ± 0.6 ×10⁻⁶ cm/s. Further, the “IC50 CYP2C8” value in series [3] (setting [6]) was 0.70 µg/mL (≈ 2.17 µM). The “IC50 CYP1A2” value in series [4] (setting [7]) is 8.8 µg/mL (≈ 27.3 µM). In addition, the “IC50 CYP2E1” value in series [5] (setting [8]) was 30 µg/mL (≈ 93 µM).

Consider `CCCCCCCCC[C@H](O)CC(=O)CCc1ccc(O)c(OC)c1` [10G, 10-gingerol], for which the “IC50 CYP3A4 (midazolam)” value in series [1] is above 35 µg/mL. For the same compound, in series [2], the “Efflux Ratio” value came out at 1.8 and the “Intracellular (cell) accumulation” value came out at 15%. For the same compound, in series [2] (A→B), the Intracellular accumulation is 15% and the Papp was 0.9 ± 0.7 ×10⁻⁶ cm/s. In series [2] (B→A), the Intracellular accumulation was 10% and the Papp is 1.7 ± 0.6 ×10⁻⁶ cm/s. Further, the “IC50 CYP2C8” value in series [3] (microsomes) was found to be 0.7 µg/mL (≈ 2 µM). In addition, in series [4] (microsomes), the “IC50 CYP1A2” value is above 35 µg/mL. Also, in series [5] (microsomes), the “IC50 CYP2E1” value is above 35 µg/mL.
